Source: patent publication US8119681B2, “2-[1-phenyl-5-hydroxy or methoxy-4alpha-methyl-hexahydrocyclopenta [ƒ]indazole-5-YL]ethyl phenyl derivatives as glucocorticoid receptor ligands” (Merck Sharp & Dohme Corp., priority 2006, dated 2012)

What was measured:
[1] = biological target: T1, human GR (Homo sapiens, UniProt P04150); experiment: Trans-Activation Modulation of Glucocorticoid Receptor (GRAMMER), MMTV-LUC reporter gene; format: cell-based; set-up: endogenous in cells; conditions: for Emax: A549; for EC50: A549 cells, IP = inflection point
T1 sequence (P04150 1-777): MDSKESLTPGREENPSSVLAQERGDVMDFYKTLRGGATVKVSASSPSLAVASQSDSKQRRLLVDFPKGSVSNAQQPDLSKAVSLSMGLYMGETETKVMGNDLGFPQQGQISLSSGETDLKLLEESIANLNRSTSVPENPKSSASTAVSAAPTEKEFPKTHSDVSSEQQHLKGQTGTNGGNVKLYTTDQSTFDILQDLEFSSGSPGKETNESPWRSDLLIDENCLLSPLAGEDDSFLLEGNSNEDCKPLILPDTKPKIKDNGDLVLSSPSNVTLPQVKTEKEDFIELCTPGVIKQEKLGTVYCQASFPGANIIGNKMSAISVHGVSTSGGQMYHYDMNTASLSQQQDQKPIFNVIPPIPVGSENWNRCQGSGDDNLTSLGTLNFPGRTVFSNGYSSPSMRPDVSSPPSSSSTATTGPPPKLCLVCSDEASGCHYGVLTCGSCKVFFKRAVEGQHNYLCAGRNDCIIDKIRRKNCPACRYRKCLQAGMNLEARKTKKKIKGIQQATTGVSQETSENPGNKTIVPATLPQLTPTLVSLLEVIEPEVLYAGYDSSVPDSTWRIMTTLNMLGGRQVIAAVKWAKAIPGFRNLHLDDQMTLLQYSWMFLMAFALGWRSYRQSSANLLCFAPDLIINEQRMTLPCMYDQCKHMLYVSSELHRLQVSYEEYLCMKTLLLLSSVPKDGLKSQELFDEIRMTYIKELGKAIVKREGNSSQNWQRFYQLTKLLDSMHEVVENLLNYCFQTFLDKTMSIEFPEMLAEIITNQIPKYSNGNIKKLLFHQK

[2] = biological target: T1, human GR; experiment: Transrepression Assay (GITAR), TNFα-β-lactamase reporter gene in U937 cells; format: cell-based; set-up: U937 cells contain an endogenous glucocorticoid receptor (GR); endogenous in cells; host or cells: U937 cells stably transfected with the TNF-α promoter/β-lactamase reporter only; conditions: for EC50: IP = inflection point; for GITAR > GRAMM % SEP: separation of GITAR Emax over GRAMMER Emax; for Emax: U-937
Outline: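 Reporter readout used CCF2-AM loading for 70–90 min at room temperature after overnight (~18 h, 37 °C) PMA (5 ng/ml final) and LPS (100 ng/ml final) stimulation of compound-treated (30–45 min) TNFα-β-lactamase U937 cells expressing native GR. Activity was normalised to 100 nM dexamethasone repression.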

[3] = read-out: Transactiviation A549 Cells GRAMMER Emax (%)
[4] = Table 2, read-out: Transactiviation A549 Cells GRAMMER IP
[5] = Table 2, U937 cells, read-out: Transactiviation U937 Cells GITAR IP
[6] = Table 2, U937 cells, activity repressed by 100 nM dexamethasone = 100%, read-out: Transactiviation U937 Cells GITAR Emax (%)
[7] = read-out: Transactivation A549 Cells GRAMMER Emax (%)
[8] = Table 1, read-out: Transactivation A549 Cells GRAMMER IP
[9] = Table 1, U937 cells, read-out: Transrepression U937 Cells GITAR IP
[10] = 100 nM dexamethasone = 100% activity, read-out: maximal activity in the transrepression assay
[11] = Table 1, U937 cells, activity repressed by 100 nM dexamethasone = 100%, read-out: Transrepression U937 Cells GITAR Emax (%)

Compound `COc1ccccc1CC[C@]1(O)CCC2=Cc3c(cnn3-c3ccc(F)cc3)C[C@@]21C` [Example 58 WO 2004/075840 A2, reference compound] has an Emax [1, 3] of 28%, an EC50 [1, 4] of 397 nM and an EC50 [2, 5] of 642 nM. The “GITAR > GRAMM % SEP” value ([2]; Table 2) was 14% and the Emax [2, 6] was 42%.
Compound `CC(C)(C)NC(=O)c1c(F)cccc1CC[C@]1(O)CCC2=Cc3c(cnn3-c3ccc(F)cc3)C[C@@]21C` [Example 59, N-(tert-butyl)-2-fluoro-6-{2-[(4αS,5R)-1-(4-fluorophenyl)-5-hydroxy-4α-methyl-1,4,4α,5,6,7-hexahydrocyclopenta[f]indazol-5-yl]ethyl}benzamide] has an Emax [1, 7] of 40%, an EC50 [1, 8] of 108 nM and an EC50 [2, 9] of 95 nM. The “GITAR > GRAMM % SEP” value ([2]; Table 1) was 37%, the Emax [2, 10] was 5 to 100% and the Emax [2, 11] was 77%.
Compound `CC(C)CNC(=O)c1c(F)cccc1CC[C@]1(O)CCC2=Cc3c(cnn3-c3ccc(F)cc3)C[C@@]21C` [Example 61, 2-fluoro-6-{2-[(4αS,5R)-1-(4-fluorophenyl)-5-hydroxy-4α-methyl-1,4,4α,5,6,7-hexahydrocyclopenta[f]indazol-5-yl]ethyl}-N-isobutylbenzamide] has an Emax [1, 7] of 35%, an EC50 [1, 8] of 86 nM and an EC50 [2, 9] of 83 nM. The “GITAR > GRAMM % SEP” value ([2]; Table 1) was 44%, the Emax [2, 10] was 5 to 100% and the Emax [2, 11] was 79%.
In the case of `CC(C)(C)NC(=O)c1ccccc1CC[C@]1(O)CCC2=Cc3c(cnn3-c3ccc(F)cc3)C[C@@]21C` [Example 62, N-(tert-butyl)-2-{2-[(4αS,5R)-1-(4-fluorophenyl)-5-hydroxy-4α-methyl-1,4,4α,5,6,7-hexahydrocyclopenta[f]indazol-5-yl]ethyl}benzamide], the Emax [1, 7] is reported as 23%, the EC50 [1, 8] is reported as 212 nM and the EC50 [2, 9] is reported as 246 nM. For the same compound, the “GITAR > GRAMM % SEP” value ([2]; Table 1) was 56%, the Emax [2, 10] was 5 to 100% and the Emax [2, 11] was 79%.
Work on `C[C@]12Cc3cnn(-c4ccc(F)cc4)c3C=C1CC[C@@]2(O)CCc1ccccc1F` [Example 70 WO 2004/075840 A2, reference compound] yielded an Emax [1, 3] of 144%, an EC50 [1, 4] of 215 nM and an EC50 [2, 5] of 175 nM. For the same compound, the “GITAR > GRAMM % SEP” value ([2]; Table 2) was −62% and the Emax [2, 6] was 83%.
For `CC(C)S(=O)(=O)NCc1c(F)cccc1CC[C@]1(O)CCC2=Cc3c(cnn3-c3ccc(F)cc3)C[C@@]21C` [Example 83, N-(2-fluoro-6-{2-[(4αS,5R)-1-(4-fluorophenyl)-5-hydroxy-4α-methyl-1,4,4α,5,6,7-hexahydrocyclopenta[f]indazol-5-yl]ethyl}benzyl)propane-2-sulfonamide], the Emax [1, 7] was 21%, the EC50 [1, 8] was 70 nM and the EC50 [2, 9] was 94 nM. For the same compound, the “GITAR > GRAMM % SEP” value ([2]; Table 1) was 33%, the Emax [2, 10] was 5 to 100% and the Emax [2, 11] was 54%.
`CCS(=O)(=O)NCc1c(F)cccc1CC[C@]1(O)CCC2=Cc3c(cnn3-c3ccc(F)cc3)C[C@@]21C` [Example 84, N-(2-fluoro-6-{2-[(4αS,5R)-1-(4-fluorophenyl)-5-hydroxy-4α-methyl-1,4,4α,5,6,7-hexahydrocyclopenta[f]indazol-5-yl]ethyl}benzyl)ethanesulfonamide] showed an Emax [1, 7] of 23%, an EC50 [1, 8] of 50 nM and an EC50 [2, 9] of 96 nM. The “GITAR > GRAMM % SEP” value ([2]; Table 1) was 37%, the Emax [2, 10] was 5 to 100% and the Emax [2, 11] was 60%.
`C[C@]12Cc3cnn(-c4ccc(F)cc4)c3C=C1CC[C@@]2(O)CCc1cccc(F)c1CNS(=O)(=O)C(Cl)Cl` [Example 85, 1,1-dichloro-N-(2-fluoro-6-{2-[(4αS,5R)-1-(4-fluorophenyl)-5-hydroxy-4α-methyl-1,4,4α,5,6,7-hexahydrocyclopenta[f]indazol-5-yl]ethyl}benzyl)methanesulfonamide] gave an Emax [1, 7] of 19%, an EC50 [1, 8] of 94 nM and an EC50 [2, 9] of 182 nM. The “GITAR > GRAMM % SEP” value ([2]; Table 1) was 44%, the Emax [2, 10] was 5 to 100% and the Emax [2, 11] was 63%.
Work on `C[C@]12Cc3cnn(-c4ccc(F)cc4)c3C=C1CC[C@@]2(O)CCc1cccc(F)c1CNS(=O)(=O)CC(F)(F)F` [Example 86, 2,2,2-trifluoro-N-(2-fluoro-6-{2-[(4αS,5R)-1-(4-fluorophenyl)-5-hydroxy-4α-methyl-1,4,4α,5,6,7-hexahydrocyclopenta[f]indazol-5-yl]ethyl}benzyl)ethanesulfonamide] yielded an Emax [1, 7] of 13%, an EC50 [1, 8] of 211 nM and an EC50 [2, 9] of 246 nM. The “GITAR > GRAMM % SEP” value ([2]; Table 1) was 53%, the Emax [2, 10] was 5 to 100% and the Emax [2, 11] was 66%.
`C[C@]12Cc3cnn(-c4ccc(F)cc4)c3C=C1CC[C@@]2(O)CCc1cccc(F)c1CNS(=O)(=O)C1CC1` [Example 88, N-(2-fluoro-6-{2-[(4αS,5R)-1-(4-fluorophenyl)-5-hydroxy-4α-methyl-1,4,4α,5,6,7-hexahydrocyclopenta[f]indazol-5-yl]ethyl}benzyl)cyclopropanesulfonamide] showed an Emax [1, 7] of 32%, an EC50 [1, 8] of 53 nM and an EC50 [2, 9] of 90 nM. The “GITAR > GRAMM % SEP” value ([2]; Table 1) was 37%, the Emax [2, 10] was 5 to 100% and the Emax [2, 11] was 69%.
`CN(C)S(=O)(=O)NCc1c(F)cccc1CC[C@]1(O)CCC2=Cc3c(cnn3-c3ccc(F)cc3)C[C@@]21C` [Example 89, N′-(2-fluoro-6-{2-[(4αS,5R)-1-(4-fluorophenyl)-5-hydroxy-4α-methyl-1,4,4α,5,6,7-hexahydrocyclopenta[f]indazol-5-yl]ethyl}benzyl)-N,N-dimethylsulfamide] gave an Emax [1, 7] of 20%, an EC50 [1, 8] of 43 nM and an EC50 [2, 9] of 64 nM. For the same compound, the “GITAR > GRAMM % SEP” value ([2]; Table 1) was 50%, the Emax [2, 10] was 5 to 100% and the Emax [2, 11] was 70%.
With `C[C@]12Cc3cnn(-c4ccc(F)cc4)c3C=C1CC[C@@]2(O)CCc1ccccc1C1(NS(=O)(=O)C2CC2)CC1` [Example 91, N-[1-(2-{2-[(4αS,5R)-1-(4-fluorophenyl)-5-hydroxy-4α-methyl-1,4,4α,5,6,7-hexahydrocyclopenta[f]indazol-5-yl]ethyl}phenyl)cyclopropyl]cyclopropanesulfonamide] the Emax [1, 7] was 46%, the EC50 [1, 8] was 121 nM and the EC50 [2, 9] was 231 nM. The “GITAR > GRAMM % SEP” value ([2]; Table 1) was 26% and the Emax [2, 11] was 72%.
For `C[C@]12Cc3cnn(-c4ccc(F)cc4)c3C=C1CC[C@@]2(O)CCc1ccccc1CC(N)=O` [Example 107, 2-(2-{2-[(4αS,5R)-1-(4-fluorophenyl)-5-hydroxy-4α-methyl-1,4,4α,5,6,7-hexahydrocyclopenta[f]indazol-5-yl]ethyl}phenyl)acetamide], the Emax [1, 7] was 37%, the EC50 [1, 8] was 261 nM and the EC50 [2, 9] was 217 nM. The “GITAR > GRAMM % SEP” value ([2]; Table 1) was 29%, the Emax [2, 10] was 5 to 100% and the Emax [2, 11] was 66%.
`CN(C)S(=O)(=O)Nc1c(F)cccc1CC[C@]1(O)CCC2=Cc3c(cnn3-c3ccc(F)cc3)C[C@@]21C` [Example 113, N′-(2-fluoro-6-{2-[(4αS,5R)-1-(4-fluorophenyl)-5-hydroxy-4α-methyl-1,4,4α,5,6,7-hexahydrocyclopenta[f]indazol-5-yl]ethyl}phenyl)-N,N-dimethylsulfamide] showed an Emax [1, 7] of 32%, an EC50 [1, 8] of 205 nM and an EC50 [2, 9] of 207 nM. For the same compound, the “GITAR > GRAMM % SEP” value ([2]; Table 1) was 39%, the Emax [2, 10] was 5 to 100% and the Emax [2, 11] was 71%.
In the case of `CCS(=O)(=O)Nc1ccccc1CC[C@]1(O)CCC2=Cc3c(cnn3-c3ccc(F)cc3)C[C@@]21C` [Example 114, N-(2-{2-[(4αS,5R)-1-(4-fluorophenyl)-5-hydroxy-4α-methyl-1,4,4α,5,6,7-hexahydrocyclopenta[f]indazol-5-yl]ethyl}phenyl)ethanesulfonamide], the Emax [1, 7] is reported as 43%, the EC50 [1, 8] is reported as 221 nM and the EC50 [2, 9] is reported as 199 nM. The “GITAR > GRAMM % SEP” value ([2]; Table 1) was 34%, the Emax [2, 10] was 5 to 100% and the Emax [2, 11] was 78%.
`CN(C)S(=O)(=O)c1ccccc1CC[C@]1(O)CCC2=Cc3c(cnn3-c3ccc(F)cc3)C[C@@]21C` [Example 138, 2-{2-[(4αS,5R)-1-(4-fluorophenyl)-5-hydroxy-4α-methyl-1,4,4α,5,6,7-hexahydrocyclopenta[f]indazol-5-yl]ethyl}-N,N-dimethylbenzenesulfonamide] gave an Emax [1, 7] of 55%, an EC50 [1, 8] of 137 nM and an EC50 [2, 9] of 212 nM. The “GITAR > GRAMM % SEP” value ([2]; Table 1) was 17%, the Emax [2, 10] was 5 to 100% and the Emax [2, 11] was 72%.
